≈ marks a conversion by molar mass, not a printed value.

The subject of data set [1] is Candida albicans Gu5. The data set is described as follows: microbe, parasite or virus in culture. As to conditions: C. albicans Gu5 (fluconazole-resistant, CDR1/2 overexpression), RPMI 1640/MOPS pH 7.0, 24 h, 37 °C, triplicate. An outline of the steps: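 Yeasts were exposed to compounds in MOPS-buffered RPMI 1640 (pH 7.0) following a modified CLSI M27-A3 protocol and incubated 24 h at 37 °C. Wells were then subcultured onto drug-free YPD agar for a further 24 h to obtain minimum fungicidal concentrations.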

For data set [2], the system named is Candida albicans 48. The data set is described as follows: microbe, parasite or virus in culture. Particulars: 37 °C. A digest of the protocol: (§1)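 Broth microdilution per CLSI M27-A3 (modified) in RPMI 1640 buffered to pH 7.0 with 0.165 M MOPS, 24 h at 37 °C, ~1% DMSO, in triplicate. MFC was read by subculturing well aliquots onto inhibitor-free YPD agar for 24 h at 37 °C. B3 is a fluconazole-sensitive clinical isolate.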

The subject of data set [3] is Candida glabrata DSM 6128. The data set can be described thus: microbe, parasite or virus in culture. As to conditions: C. glabrata DSM 6128, RPMI 1640/MOPS pH 7.0, 24 h, 37 °C, triplicate. An outline of the steps: as §1
For data set [4], the system named is Candida albicans 604. The data set can be described thus: microbe, parasite or virus in culture. As to conditions: 37 °C. An outline of the steps:
as §1

Data set [5] has as its system Candida krusei DSM 11226. The data set can be described thus: microbe, parasite or virus in culture. As to conditions: C. krusei DSM 11226, 37 °C. An outline of the steps:
as §1

For data set [6], the system named is C. albicans SC5314. Particulars: C. albicans SC5314, 1 × MFC, time-kill over 24 h, RPMI 1640, 37 °C.
Experimental: Antifungal time-kill studies were carried out by a method previously described and evaluated by Klepser et al. [40]. A starting inoculum was prepared by inoculating a tube of sterile water with growth from 24 h YPD agar plates (C. albicans SC5314), and OD660 was adjusted to about 0.1 (around 10^6 cells per 1 mL). […] A negative control (growth medium without drug or organism) was also included at each time of testing. Tubes were incubated at 37 °C on an orbital shaker and vortexed before removing a sample for the determination of colony counts. After the appropriate time of incubation (0.5, 2, 4, 6, and 24 h), 1 mL of each suspension was centrifuged (2 min, 9170× g), and the pellet was re-suspended in 1 mL of PBS pH 7.4. Ten-fold serial dilutions with PBS were prepared, and 100 μL of each was inoculated on YPD agar plates in duplicate. Plates were incubated for 24 h at 37 °C. Colony forming units in the range of 30–300 were counted (on the plates containing from 30 to 300 colonies) and the number of yeast cells in 1 mL (CFU/mL) was calculated [21].
Data set [7] deals with Hs27 cells (human foreskin fibroblast cell line). The data set can be described thus: MTT cytotoxicity assay. As to conditions: Hs27 cells, MTT, 72 h, 37 °C, 100–1.5 μM, biological triplicates. The procedure:
The assessment of antifungal potential of synthesized agents was carried out using four reference strains (C. albicans ATCC 10231, C. albicans SC5314, C. glabrata DSM […] and C. krusei DSM […]) and six clinical isolates of fluconazole-resistant C. albicans that were provided by the Hospital of Medical University of Gdansk, Poland. Moreover, four C. albicans isolates, assigned as B3, B4, Gu4 and Gu5, were used for investigation whether the synthesized fluconazole derivatives were effectively removed from the yeast cells by the drug efflux transporters, as in the case of fluconazole. These strains were kindly provided by Prof. Joachim Morschhäuser from University of Würzburg (Würzburg, Germany). Strains Gu4 and B3 were fluconazole-sensitive isolates obtained from early infection episodes, while Gu5 and B4 were the corresponding fluconazole-resistant isolates obtained from later episodes in the same patients treated with fluconazole. The lack of susceptibility of the Gu5 strain to fluconazole was a consequence of overexpression of CDR1/2 genes encoding ABC transporters, whereas the resistance of B4 strain was caused by overexpression of the MDR1 gene encoding a membrane transport protein of the major facilitator superfamily (MFS). All of these Candida spp. strains were maintained on YPD agar plates (1% (w/v) yeast extract, 2% (w/v) peptone, 2% (w/v) glucose, 2% (w/v) agar) at 30 °C for 16–24 h. For all of the assays aimed at assessing the antifungal potential of the synthesized agents, the yeasts were cultivated at 37 °C in RPMI 1640 medium (with L-glutamine, without sodium bicarbonate, Sigma-Aldrich, Darmstadt, Germany)) buffered to a pH of 7.0 with 0.165 M morpholinepropanesulfonic acid (MOPS) buffer (Sigma-Aldrich). In this study, we used the human foreskin fibroblast cell line Hs27 (ATCC CRL 1634TM) and the human endothelial cell line HUVEC (C2519A), purchased from Lonza Group AG, (Basel, Switzerland). The Hs27 cells were maintained in cell media consisting of Dulbecco’s modified Eagles medium (DMEM), (Corning, Arizona, USA) with 10% fetal bovine serum (FBS), (Corning, Port Elizabeth, South Africa), 1% penicillin/streptomycin (Sigma-Aldrich Inc., Darmstadt, Germany), and 1% L-glutamine (Corning, Arizona, USA). The human endothelial cell line was maintained in cell media consisting of Endothelial Cell Growth Medium-2 Single Quots Kit (Lonza, USA). Both cell lines were cultured in an incubator at 37 °C and 5% CO2.
Hs27 and HUVEC mammalian cell lines were cultured as mentioned above. Once cell lines were about 80% confluent, cells were counted by a hemacytometer (Hausser Scientific, Horsham, PA, USA) and plated in 96-well microtiter plates at concentrations of 4500 cells per well for Hs27 and 2000 cells per well for HUVEC. Cells were allowed to attach overnight. […] The final concentration of DMSO was ensured to be around 1% in all experiments. Cells were incubated with studied compounds for 72 h at 37 °C and 5% CO2. After incubation, 20 µL of MTT solution in PBS (4 mg/mL) was added to all wells and incubated further for 3 h at 37 °C. Formed formazan crystals were dissolved in 150 µL DMSO, and absorbance was measured using an Asys UVM340 multi-well plate reader at λ = 540 nm. Cytotoxicity was determined compared to drug-free control. All experiments were performed in biological triplicates.
(Tetrazolium dyes change colour on reduction, which living cells bring about.)

[8] abbreviates: at least 50% growth inhibition vs growth control.
[9] abbreviates: lowest concentration with no visible growth.

For the compound `CC[C@H](C)[C@H](NC(=O)[C@H](CCCCN)NC(=O)[C@H](CCCCN)NC(=O)[C@H](C)NC(=O)[C@H](CC(C)C)NC(=O)[C@H](C)NC(=O)[C@H](C)NC(=O)[C@H](CC(C)C)NC(=O)[C@H](C)NC(=O)[C@H](CCCCN)NC(=O)[C@H](CC(C)C)NC(=O)[C@H](CC(N)=O)NC(=O)[C@@H](NC(=O)[C@H](CCCCN)NC(=O)CNC(=O)[C@H](CC(C)C)NC(=O)[C@H](CC(C)C)NC(=O)[C@H](Cc1ccc(O)cc1)NC(=O)CNC(=O)[C@H](C)NC(=O)CCCC(=O)OC(Cn1cncn1)(Cn1cncn1)c1ccc(F)cc1F)[C@@H](C)CC)C(=O)N[C@@H](CC(C)C)C(N)=O` [FLCpOH-TP10-NH2], the MIC50 in data set [1] (setting [8]) is given as 62 µM (≈ 160 µg/mL); in data set [2] (C. albicans 48 (fluconazole-resistant clinical isolate), RPMI 1640/MOPS pH 7.0, 24 h, triplicate, at least 50% growth inhibition vs growth control), 45 µM (≈ 116 µg/mL); in data set [3] (setting [8]) it was 62 µM (≈ 160 µg/mL); in data set [4] (C. albicans 604 (fluconazole-resistant clinical isolate), RPMI 1640/MOPS pH 7.0, 24 h, triplicate, at least 50% growth inhibition vs growth control) it was 45 µM (≈ 116 µg/mL); in data set [5] (RPMI 1640/MOPS pH 7.0, 24 h, triplicate, at least 50% growth inhibition vs growth control) it was 62 µM (≈ 160 µg/mL). Besides, the MIC90 amounted to 125 µM (≈ 323 µg/mL) in data set [1] (setting [9]); 62 µM (≈ 160 µg/mL) in data set [2] (C. albicans 48 (fluconazole-resistant clinical isolate), RPMI 1640/MOPS pH 7.0, 24 h, triplicate, lowest concentration with no visible growth); 125 µM (≈ 323 µg/mL) in data set [3] (setting [9]); 62 µM (≈ 160 µg/mL) in data set [4] (C. albicans 604 (fluconazole-resistant clinical isolate), RPMI 1640/MOPS pH 7.0, 24 h, triplicate, lowest concentration with no visible growth); 125 µM (≈ 323 µg/mL) in data set [5] (RPMI 1640/MOPS pH 7.0, 24 h, triplicate, lowest concentration with no visible growth). In addition, the MFC in data set [2] (C. albicans 48, aliquots plated on YPD agar, 24 h, lowest concentration with no colony growth) turned out to be 250 µM (≈ 646 µg/mL); in data set [4] (C. albicans 604, aliquots plated on YPD agar, 24 h, lowest concentration with no colony growth), 250 µM (≈ 646 µg/mL); in data set [5] (aliquots plated on YPD agar, 24 h, lowest concentration with no colony growth), 250 µM (≈ 646 µg/mL). The “reduction in yeast cell count” value in data set [6] is listed as 1 log10. For the same compound, the “In vitro cytotoxicity IC90 ± SEM” value in data set [7] was found to be 28.81 ± 0.87 µM.

By MFC is commonly meant the smallest concentration meeting the test's criterion for killing the fungus. Read a low MFC as greater fungicidal potency.

(Values after article PMC9026428, “New Peptide Based Fluconazole Conjugates with Expanded Molecular Targets” (Pharmaceutics, 2022).)
